Experimental data: PubChem BioAssay AID1963846 (Molecular Pharmacology Branch, DTP, NCI, 2024)

Tested on: 454973-116-R2-J3-PDC complex spheroid viability
Assay: Anticancer human tumor 454973-116-R2-J3-PDC patient-derived pancreatic carcinoma cell line growth inhibition [POLQ]
Settings: for IC50: curve of first compound; for viability, T/C: stronger effect = lower value
Method in brief: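 Growth inhibition in 3D: complex spheroids (tumor PDC, HUVEC, MSC) treated with POLQ inhibitor combinations; where Cmax unknown, highest tested concentration 10 microM, except SN-38 at 1 microM.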

[1] = second compound 0.0316 µM, first compound 0.0316 µM
[2] = second compound 0.0316 µM, first compound 0.1 µM
[3] = second compound 0.0316 µM, first compound 0.316 µM
[4] = second compound 0.0316 µM, first compound 1 µM
[5] = second compound 0.0316 µM, first compound 3.16 µM
[6] = second compound 0.0316 µM, first compound 10 µM
[7] = second compound 0.1 µM, first compound 0.0316 µM
[8] = second compound 0.1 µM, first compound 0.1 µM
[9] = second compound 0.1 µM, first compound 0.316 µM
[10] = second compound 0.1 µM, first compound 1 µM
[11] = second compound 0.1 µM, first compound 3.16 µM
[12] = second compound 0.1 µM, first compound 10 µM
[13] = second compound 0.316 µM, first compound 0.0316 µM
[14] = second compound 0.316 µM, first compound 0.1 µM
[15] = second compound 0.316 µM, first compound 0.316 µM
[16] = second compound 0.316 µM, first compound 1 µM
[17] = second compound 0.316 µM, first compound 3.16 µM
[18] = second compound 0.316 µM, first compound 10 µM
[19] = second compound 1 µM, first compound 0.0316 µM
[20] = second compound 1 µM, first compound 0.1 µM
[21] = second compound 1 µM, first compound 0.316 µM
[22] = second compound 1 µM, first compound 1 µM
[23] = second compound 1 µM, first compound 3.16 µM
[24] = second compound 1 µM, first compound 10 µM
[25] = second compound 3.16 µM, first compound 0.0316 µM
[26] = second compound 3.16 µM, first compound 0.1 µM
[27] = second compound 3.16 µM, first compound 0.316 µM
[28] = second compound 3.16 µM, first compound 1 µM
[29] = second compound 3.16 µM, first compound 3.16 µM
[30] = second compound 3.16 µM, first compound 10 µM
[31] = second compound 10 µM, first compound 0.0316 µM
[32] = second compound 10 µM, first compound 0.1 µM
[33] = second compound 10 µM, first compound 0.316 µM
[34] = second compound 10 µM, first compound 1 µM
[35] = second compound 10 µM, first compound 3.16 µM
[36] = second compound 10 µM, first compound 10 µM
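Further: spheroids exposed to drugs for seven days before measurement.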
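Wherever viability, T/C is given: percent viability relative to DMSO vehicle control wells taken as 100%.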

COc1ccc([C@@H](O)c2cc(-c3ncnc4cc(N5CCOCC5)ccc34)c(F)cc2Cl)nn1 + COC1C(OC(N)=O)C(O)C(Oc2ccc3c(O)c(NC(=O)c4ccc(O)c(CC=C(C)C)c4)c(=O)oc3c2C)OC1(C)C
IC50 (second compound 0.0316 µM): 9.5 µM
IC50 (second compound 0.1 µM): > 10 µM
IC50 (second compound 0.316 µM): > 10 µM
IC50 (second compound 1 µM): > 10 µM
IC50 (second compound 3.16 µM): > 10 µM
IC50 (second compound 10 µM): > 10 µM
viability, T/C [1]: 97.9%
viability, T/C [2]: 99.5%
viability, T/C [3]: 99%
viability, T/C [4]: 94.4%
viability, T/C [5]: 75.2%
viability, T/C [6]: 48.8%
viability, T/C [7]: 104%
viability, T/C [8]: 106%
viability, T/C [9]: 96.7%
viability, T/C [10]: 98.2%
viability, T/C [11]: 73.2%
viability, T/C [12]: 52.5%
viability, T/C [13]: 112%
viability, T/C [14]: 107%
viability, T/C [15]: 98.3%
viability, T/C [16]: 95%
viability, T/C [17]: 71.7%
viability, T/C [18]: 51.3%
viability, T/C [19]: 113%
viability, T/C [20]: 102%
viability, T/C [21]: 115%
viability, T/C [22]: 103%
viability, T/C [23]: 65.6%
viability, T/C [24]: 51.4%
viability, T/C [25]: 112%
viability, T/C [26]: 107%
viability, T/C [27]: 98.8%
viability, T/C [28]: 88.3%
viability, T/C [29]: 78.8%
viability, T/C [30]: 54.2%
viability, T/C [31]: 116%
viability, T/C [32]: 93.3%
viability, T/C [33]: 93.3%
viability, T/C [34]: 83.5%
viability, T/C [35]: 76.3%
viability, T/C [36]: 50.6%

CCc1cc2c(N3CCc4c(cc(Cn5ccnc5)cc4-c4cn(C)nc4C(F)(F)F)C3=O)cc(C)nc2c(OC)n1 + COC1C(OC(N)=O)C(O)C(Oc2ccc3c(O)c(NC(=O)c4ccc(O)c(CC=C(C)C)c4)c(=O)oc3c2C)OC1(C)C
IC50 (second compound 0.0316 µM): > 10 µM
IC50 (second compound 0.1 µM): > 10 µM
IC50 (second compound 0.316 µM): > 10 µM
IC50 (second compound 1 µM): > 10 µM
IC50 (second compound 3.16 µM): > 10 µM
IC50 (second compound 10 µM): > 10 µM
viability, T/C [1]: 111%
viability, T/C [2]: 93.7%
viability, T/C [3]: 91.5%
viability, T/C [4]: 87.9%
viability, T/C [5]: 87.2%
viability, T/C [6]: 75.1%
viability, T/C [7]: 94.1%
viability, T/C [8]: 107%
viability, T/C [9]: 95.2%
viability, T/C [10]: 91.2%
viability, T/C [11]: 81%
viability, T/C [12]: 71%
viability, T/C [13]: 101%
viability, T/C [14]: 103%
viability, T/C [15]: 91.8%
viability, T/C [16]: 94.1%
viability, T/C [17]: 83.6%
viability, T/C [18]: 73.2%
viability, T/C [19]: 110%
viability, T/C [20]: 95%
viability, T/C [21]: 105%
viability, T/C [22]: 98%
viability, T/C [23]: 84.7%
viability, T/C [24]: 76.3%
viability, T/C [25]: 109%
viability, T/C [26]: 102%
viability, T/C [27]: 93.9%
viability, T/C [28]: 88.2%
viability, T/C [29]: 85.9%
viability, T/C [30]: 70.3%
viability, T/C [31]: 103%
viability, T/C [32]: 90.5%
viability, T/C [33]: 89.6%
viability, T/C [34]: 85.3%
viability, T/C [35]: 84%
viability, T/C [36]: 67.6%

CC1COCCN1c1cc(C2(O)CC3CCC(C2)O3)c2cnn(-c3ccn[nH]3)c2n1 (stereo unspecified) + COC1C(OC(N)=O)C(O)C(Oc2ccc3c(O)c(NC(=O)c4ccc(O)c(CC=C(C)C)c4)c(=O)oc3c2C)OC1(C)C
IC50 (second compound 0.0316 µM): 0.205 µM
IC50 (second compound 0.1 µM): 0.233 µM
IC50 (second compound 0.316 µM): 0.225 µM
IC50 (second compound 1 µM): 0.197 µM
IC50 (second compound 3.16 µM): 0.193 µM
IC50 (second compound 10 µM): 0.217 µM
viability, T/C [1]: 104%
viability, T/C [2]: 74.1%
viability, T/C [3]: 35.3%
viability, T/C [4]: 22.1%
viability, T/C [5]: 25.1%
viability, T/C [6]: 15.6%
viability, T/C [7]: 93.2%
viability, T/C [8]: 76.9%
viability, T/C [9]: 39.6%
viability, T/C [10]: 24.4%
viability, T/C [11]: 22.2%
viability, T/C [12]: 15.8%
viability, T/C [13]: 100%
viability, T/C [14]: 75.6%
viability, T/C [15]: 40.6%
viability, T/C [16]: 18.9%
viability, T/C [17]: 25.8%
viability, T/C [18]: 18.4%
viability, T/C [19]: 102%
viability, T/C [20]: 69.6%
viability, T/C [21]: 37.8%
viability, T/C [22]: 18.7%
viability, T/C [23]: 21.4%
viability, T/C [24]: 20.1%
viability, T/C [25]: 104%
viability, T/C [26]: 73.5%
viability, T/C [27]: 32.6%
viability, T/C [28]: 19.3%
viability, T/C [29]: 24.1%
viability, T/C [30]: 17.6%
viability, T/C [31]: 94.6%
viability, T/C [32]: 68.4%
viability, T/C [33]: 42.3%
viability, T/C [34]: 21.5%
viability, T/C [35]: 25.8%
viability, T/C [36]: 15%
